These are literature values, as cited in patent publication US5846995A, “Substituted 1, 2, 3, 4-tetrahydro-2-dibenzofuranamines and 2-amino-cyclohepta (6, 7-B) Benzofurans” (priority 1997, dated 1998).

For the data set the following is noted: background.

As for `CNS(=O)(=O)Cc1ccc2[nH]cc(CCN(C)C)c2c1.O=C(O)CCC(=O)O` [Compound I, 3-[2-(dimethylamino)ethyl]-N-methyl-1H-indole-5-methanesulfonamide butane-1,4-dioate (1:1)], the bioavailability result is listed as “low bioavailability”.
